# Molecular target: T1, Vitamin D3 receptor (Homo sapiens, UniProt P11473)
# T1 sequence (P11473 whole entry): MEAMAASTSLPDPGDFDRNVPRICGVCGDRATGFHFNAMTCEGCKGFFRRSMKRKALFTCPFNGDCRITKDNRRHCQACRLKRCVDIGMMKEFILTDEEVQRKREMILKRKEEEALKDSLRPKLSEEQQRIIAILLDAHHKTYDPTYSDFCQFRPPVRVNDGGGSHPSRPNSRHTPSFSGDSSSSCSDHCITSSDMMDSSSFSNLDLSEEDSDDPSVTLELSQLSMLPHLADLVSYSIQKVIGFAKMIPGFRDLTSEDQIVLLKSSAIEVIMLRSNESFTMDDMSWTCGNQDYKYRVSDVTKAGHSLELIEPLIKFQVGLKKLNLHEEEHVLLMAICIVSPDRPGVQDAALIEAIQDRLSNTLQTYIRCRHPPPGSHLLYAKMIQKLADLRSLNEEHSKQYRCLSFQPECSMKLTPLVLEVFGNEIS
# Assay: Activity at human VDR expressed in human HOS cells transfected with pGL3-hOc, pCDNA-hVDR and phRL-TK assessed as assessed as transcriptional activation measured 24 hrs post […] by luciferase reporter gene assay
# Assay type: cell-based
row,EC50 [nM],SMILES
1,19.4,CCC(CC)(c1ccc(OC[C@H](O)C(C)(C)C)c(C)c1)c1ccc(OC(CCO)CCO)c(C)c1
2,1.11,CCC(CC)(c1ccc(OCC(CO)CO)c(C)c1)c1ccc(OC[C@H](O)C(C)(C)C)c(C)c1
3,0.92,CCC(CC)(c1ccc(OC[C@H](O)C(C)(C)C)c(C)c1)c1ccc(O[C@@H](CO)[C@@H](O)CO)c(C)c1
4,1.25,CCC(CC)(c1ccc(OC[C@H](O)C(C)(C)C)c(C)c1)c1ccc(O[C@H](CO)[C@H](O)CO)c(C)c1
5,0.06,CCC(CC)(c1ccc(OC[C@H](O)C(C)(C)C)c(C)c1)c1ccc(O[C@@H](CO)CCO)c(C)c1
6,1.29,CCC(CC)(c1ccc(OC[C@H](O)C(C)(C)C)c(C)c1)c1ccc(O[C@H](CO)CCO)c(C)c1

# Source: ChEMBL document CHEMBL1833851, “Design, synthesis and X-ray crystallographic study of new nonsecosteroidal vitamin D receptor ligands” (Bioorg Med Chem Lett, 2011)
